# Assay results reported in US20230123334A1, “AMINO LIPID COMPOUND, PREPARATION METHOD THEREFOR, AND APPLICATION THEREOF” (SHENZHEN SHENXIN BIOTECHNOLOGY CO., LTD., priority 2020, published 2023).
# Test system: HEK293 cells
# Assay: Preliminary screening as DNA vectors, GFP transfection of HEK293 cells
# Format: cell-based
# Conditions: amino lipid/DOPE liposome with 75 ng plasmid DNA (psin-EGFP-IRES-Puro); number of GFP-expressing cells divided by total nuclei (Hoechst)
# Outline: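 Lipid + DOPE liposomes (NaOAc, pH 5.6) complexed w/ 75 ng psin-EGFP-IRES-Puro, 30 min RT; added to 3-5×10^4 HEK293/well, 37° C. Hoechst 0.2 μg/mL at 20-24 h, imaged after further 20-24 h. Efficiency = GFP+ cells / total nuclei.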
row,SMILES,Absolute DNA transfection efficiency in HEK293 cells
1,CCCCCCCCCCCCN(CCCCCCCCCCCC)c1nc(NCCN2CCCCC2)nc(SCCCCCCCCCCC)n1 [S11^2N12 D4],0.0%
2,CCCCCCCCCCCCCCCCSc1nc(NCCCCCCCC)nc(NCCCN2CCOCC2)n1 [S16N8 D8],16.5%
3,CCCCCCCCCCCCCCCCNc1nc(NCCN2CCOCC2)nc(SCCCCCCCCC)n1 [S9N16 D2],23.5%
4,CCCCCCCCCCCCCCCCSc1nc(NCC2CCN(C)CC2)nc(SCCCCCC)n1 [S6S16 D10],37.6%
5,CCCCCCCCCCSc1nc(NCCCCCCC)nc(NCCCN2CCN(C)CC2)n1 [S10N7 D9],4.5%
6,CCCCCCCCCCCCCCCCCCSc1nc(NCCN(C)C)nc(SCCCCCC)n1 [S6S18 D1],9.8%
7,CCCCCCCCCCCCCCCCCCSc1nc(NCCN2CCCC2)nc(SCCCCCC)n1 [S6S18 D3],13.8%
8,CCCCCCCCCCCCSc1nc(NCCN2CCOCC2)nc(SCCCCCC)n1 [S6S12 D2],5.0%
9,CCCCCCCCCCCCCNc1nc(NCCN2CCOCC2)nc(SCCCCCCCCCC)n1 [S10N13 D2],4.2%
10,CCCCCCCCCCCCCCCNc1nc(NCCN(C)C)nc(SCCCCCC)n1 [S6N15 D1],5.8%
11,CCCCCCCSc1nc(NCCCCCC)nc(NCCN2CCN(C)CC2)n1 [S7N6 D5],28.5%
12,CCCCCCNc1nc(NCCN2CCOCC2)nc(SCCCCCC)n1 [S6N6 D2],0.0%
13,CCCCCCCCCCCCCNc1nc(NCCN(C)C)nc(SCCCCCCCC)n1 [S8N13 D1],18.3%
14,CCCCCCCCCCCSc1nc(NCCCN(C)C)nc(SCCCCCCC)n1 [S7S11 D6],28.7%
15,CCCCCCCCCCSc1nc(NCCCN(C)C)nc(SCCCCCC)n1 [S6S10 D6],20.9%
16,CCCCCCCCCCCCCCCCSc1nc(NCCCCCCCC)nc(NCCN2CCCCC2)n1 [S16N8 D4],8.4%
17,CCCCCCCCCCCCCCCCCCNc1nc(NCC2CCN(C)CC2)nc(SCCCCCCCCCCCC)n1 [S12N18 D10],3.7%
18,CCCCCCCCCCCCCCCCCCSc1nc(NCCCCCCCCCCCCC)nc(NCC2CCN(C)CC2)n1 [S18N13 D10],0.9%
19,CCCCCCCCCCCCCCCCCCNc1nc(NCC2CCN(C)CC2)nc(SCCCCCCC)n1 [S7N18 D10],16.3%
20,CCCCCCCCCCSc1nc(NCCCCCC)nc(NCCCN2CCN(C)CC2)n1 [S10N6 D9],5.5%
21,CCCCCCCCCCCNc1nc(NCCN2CCCCC2)nc(SCCCCCCCCC)n1 [S9N11 D4],8.3%
22,CCCCCCCCCCCCSc1nc(NCCCCCCCCC)nc(NCCCN2CCOCC2)n1 [S12N9 D8],0.0%
23,CCCCCCCCCCCCCCSc1nc(NCCCCCCCC)nc(NCCCN2CCOCC2)n1 [S14N8 D8],9.8%
24,CCCCCCCCCCCCCCCNc1nc(NCC2CCN(C)CC2)nc(SCCCCCCC)n1 [S7N15 D10],30.9%
25,CCCCCCCCCCCCCNc1nc(NCCCN2CCOCC2)nc(SCCCCCCCCCC)n1 [S10N13 D8],5.7%

row,SMILES,Absolute DNA transfection efficiency in HEK293 cells
1,CCCCCCCCCCCCCCCCCCNc1nc(NCC2CCN(C)CC2)nc(SCCCCCCCCCCCCCCCC)n1 [S16N18 D10],1.2%
2,CCCCCCCCCCCCCCSc1nc(NCCCCCCCCCCC)nc(NCCN2CCCC2)n1 [S14N11 D3],25.2%
3,CCCCCCCCCCSc1nc(NCCCCCCCC)nc(NCCCN2CCOCC2)n1 [S10N8 D8],3.4%
4,CCCCCCCCNc1nc(NCCN(CC)CC)nc(SCCCCCC)n1 [S6N8 D7],0.9%
5,CCCCCCCCCCCCCCCCCCSc1nc(NCCCCCCCCCCC)nc(NCCCN2CCN(C)CC2)n1 [S18N11 D9],2.9%
6,CCCCCCCCCCCSc1nc(NCCCCCCC)nc(NCCCN(C)C)n1 [S11N7 D6],34.0%
7,CCCCCCCCCCCCCCCNc1nc(NCCN2CCN(C)CC2)nc(SCCCCCCCCCCCCCC)n1 [S14N15 D5],0.4%
8,CCCCCCCCCCCCCCSc1nc(NCCCCCCCCC)nc(NCC2CCN(C)CC2)n1 [S14N9 D10],17.6%
9,CCCCCCCCCCCCCCCCCCSc1nc(NCCCCCCCCCCCCC)nc(NCCN2CCCCC2)n1 [S18N13 D4],0.0%
10,CCCCCCCSc1nc(NCCN2CCCC2)nc(SCCCCCCC)n1 [S7S7 D3],9.2%
11,CCCCCCCCCCCCSc1nc(NCCCN2CCN(C)CC2)nc(SCCCCCCCC)n1 [S8S12 D9],3.5%
12,CCCCCCCCCCCCCCCCSc1nc(NCCCCCCC)nc(NCCCN2CCN(C)CC2)n1 [S16N7 D9],9.8%
13,CCCCCCCCCCCCCCCCCCNc1nc(NCCN2CCCC2)nc(SCCCCCCCCCCCC)n1 [S12N18 D3],3.9%
14,CCCCCCNc1nc(NCC2CCN(C)CC2)nc(SCCCCCC)n1 [S6N6 D10],0.0%
15,CCCCCCCCCCCCN(CCCCCCCCCCCC)c1nc(NCCN(CC)CC)nc(SCCCCCCCC)n1 [S8^2N12 D7],0.1%
16,CCCCCCCCCCCCCCCNc1nc(NCCCN(C)C)nc(SCCCCCCC)n1 [S7N15 D6],15.9%
17,CCCCCCCCCCCCCCCCCCSc1nc(NCCCCCCCCCCCCCCCC)nc(NCCN2CCCCC2)n1 [S18N16 D4],0.1%
18,CCCCCCCCCCCCCCCCCCNc1nc(NCCCN2CCOCC2)nc(SCCCCCCC)n1 [S7N18 D8],5.9%
19,CCCCCCCCCCCCCNc1nc(NCCN(CC)CC)nc(SCCCCCCCCCC)n1 [S10N13 D7],4.4%
20,CCCCCCCCCCCSc1nc(NCCCCCCC)nc(NCCN2CCOCC2)n1 [S11N7 D2],11.7%
21,CCCCCCCCCCCCCCCCCCSc1nc(NCCCCCCCCCCCC)nc(NCCCN2CCN(C)CC2)n1 [S18N12 D9],0.0%
22,CCCCCCCCCCCCCCCCNc1nc(NCCN2CCN(C)CC2)nc(SCCCCCCCCC)n1 [S9N16 D5],21.7%
23,CCCCCCCCCCCCCCCCCCSc1nc(NCCCCCCCCCCCCCCC)nc(NCCN2CCCCC2)n1 [S18N15 D4],0.2%
24,CCCCCCCCCCCCCCCSc1nc(NCCCCCCCC)nc(NCCN(CC)CC)n1 [S15N8 D7],6.7%
25,CCCCCCCCCCCCCCCNc1nc(NCCCN(C)C)nc(SCCCCCCCCCCCCCC)n1 [S14N15 D6],0.8%

row,SMILES,Absolute DNA transfection efficiency in HEK293 cells
1,CCCCCCCCCCCCSc1nc(NCC2CCN(C)CC2)nc(SCCCCCC)n1 [S6S12 D10],24.4%
2,CCCCCCCCCCCSc1nc(NCCCCCCCC)nc(NCCCN(C)C)n1 [S11N8 D6],36.9%
3,CCCCCCCCCCCCCCCCNc1nc(NCC2CCN(C)CC2)nc(SCCCCCCCCCC)n1 [S10N16 D10],8.7%
4,CCCCCCCCCCSc1nc(NCCN2CCOCC2)nc(SCCCCCC)n1 [S6S10 D2],8.3%
5,CCCCCCCCCCCCSc1nc(NCCCCCC)nc(NCCN(C)C)n1 [S12N6 D1],0.3%
6,CCCCCCCCCCCCCCCSc1nc(NCCCCCCC)nc(NCCN2CCCCC2)n1 [S15N7 D4],8.1%
7,CCCCCCCCSc1nc(NCCN2CCN(C)CC2)nc(SCCCCCC)n1 [S6S8 D5],15.3%
8,CCCCCCCCCNc1nc(NCCN2CCCC2)nc(SCCCCCC)n1 [S6N9 D3],0.4%
9,CCCCCCCCCCCCCCCCCCSc1nc(NCCCCCCCCCCC)nc(NCCCN2CCOCC2)n1 [S18N11 D8],1.3%
10,CCCCCCCCCCCCCNc1nc(NCCN2CCCCC2)nc(SCCCCCCCCC)n1 [S9N13 D4],6.7%
11,CCCCCCCCCCCCCNc1nc(NCCN2CCCCC2)nc(SCCCCCCC)n1 [S7N13 D4],6.4%
12,CCCCCCCCCCCCCCCCCCSc1nc(NCC2CCN(C)CC2)nc(SCCCCCC)n1 [S6S18 D10],34.7%
13,CCCCCCCCCCCCCCCCSc1nc(NCCCCCCCCCCCCCCC)nc(NCCN2CCOCC2)n1 [S16N15 D2],0.0%
14,CCCCCCCCNc1nc(NCCN(CC)CC)nc(SCCCCCCC)n1 [S7N8 D7],26.8%
15,CCCCCCCCCCCCCCCCCCSc1nc(NCCCCCC)nc(NCCN2CCN(C)CC2)n1 [S18N6 D5],18.1%
16,CCCCCCCCCCCCNc1nc(NCCCN2CCOCC2)nc(SCCCCCCCCC)n1 [S9N12 D8],13.6%
17,CCCCCCCCCCCCCNc1nc(NCCN(C)C)nc(SCCCCCC)n1 [S6N13 D1],6.5%
18,CCCCCCCCCSc1nc(NCCCN2CCN(C)CC2)nc(SCCCCCCCC)n1 [S8S9 D9],23.5%
19,CCCCCCCCCNc1nc(NCCN(CC)CC)nc(SCCCCCCCC)n1 [S8N9 D7],26.0%
20,CCCCCCCCCCCCCCCCCCNc1nc(NCCCN2CCOCC2)nc(SCCCCCCCCCC)n1 [S10N18 D8],0.3%
21,CCCCCCCCCCCCCCCCCCNc1nc(NCCN2CCCCC2)nc(SCCCCCCCCC)n1 [S9N18 D4],9.0%
22,CCCCCCCCCNc1nc(NCC2CCN(C)CC2)nc(SCCCCCC)n1 [S6N9 D10],4.3%
23,CCCCCCCCCCCCCCSc1nc(NCCCCCC)nc(NCCCN2CCN(C)CC2)n1 [S14N6 D9],17.4%
